Experimental data taken from patent US6608086B2, “Dihydropyridines and new uses thereof” (Synaptic Pharmaceutical Corporation, priority 1993, dated 2003).
pKi: −log10 of the molar value. Like-named read-outs stand apart in the source and are kept apart here.

Columns and labels:
[1] = target: T1, α1C Human Adrenergic Receptor (Homo sapiens, UniProt P35348); test: Radioligand binding, [3H]prazosin, cloned human α1C adrenergic receptor
T1 construct: The entire coding region of α1C (1401 bp); expressed in transfected cells
T1 sequence (P35348 1-466): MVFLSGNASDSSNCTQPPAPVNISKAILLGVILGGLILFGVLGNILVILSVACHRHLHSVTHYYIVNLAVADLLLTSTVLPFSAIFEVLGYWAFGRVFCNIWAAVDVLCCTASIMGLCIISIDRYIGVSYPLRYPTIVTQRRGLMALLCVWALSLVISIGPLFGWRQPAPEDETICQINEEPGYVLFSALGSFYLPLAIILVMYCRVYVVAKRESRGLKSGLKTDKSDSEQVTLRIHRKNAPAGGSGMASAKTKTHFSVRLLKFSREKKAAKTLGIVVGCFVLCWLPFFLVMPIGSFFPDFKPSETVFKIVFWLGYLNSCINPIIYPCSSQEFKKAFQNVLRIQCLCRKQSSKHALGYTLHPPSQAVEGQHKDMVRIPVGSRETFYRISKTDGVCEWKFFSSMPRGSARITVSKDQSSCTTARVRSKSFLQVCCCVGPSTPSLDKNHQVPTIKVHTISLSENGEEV
How it was run: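 Stably transfected mouse LM(tk−) fibroblast membranes bearing the cloned human α1C adrenoceptor served as receptor source. Specific binding was taken as the portion of 0.5 nM [3H]prazosin displaceable by 10 μM phentolamine after 20 min at 37° C., pH 7.5, in Mg2+/ascorbate-containing Tris buffer.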

L-type calcium channel = target: T2, L-type calcium channel (Rattus norvegicus, UniProt P22002); test: Competition binding of [3H]nitrendipine to membrane fragments of rat cardiac muscle; conditions: for Ki: [3H]nitrendipine
T2 construct: membrane fragments of rat cardiac muscle; from tissue; host or cells: rat cardiac muscle membranes
T2 sequence (P22002 whole entry, other chains not shown, the tested form may be a part): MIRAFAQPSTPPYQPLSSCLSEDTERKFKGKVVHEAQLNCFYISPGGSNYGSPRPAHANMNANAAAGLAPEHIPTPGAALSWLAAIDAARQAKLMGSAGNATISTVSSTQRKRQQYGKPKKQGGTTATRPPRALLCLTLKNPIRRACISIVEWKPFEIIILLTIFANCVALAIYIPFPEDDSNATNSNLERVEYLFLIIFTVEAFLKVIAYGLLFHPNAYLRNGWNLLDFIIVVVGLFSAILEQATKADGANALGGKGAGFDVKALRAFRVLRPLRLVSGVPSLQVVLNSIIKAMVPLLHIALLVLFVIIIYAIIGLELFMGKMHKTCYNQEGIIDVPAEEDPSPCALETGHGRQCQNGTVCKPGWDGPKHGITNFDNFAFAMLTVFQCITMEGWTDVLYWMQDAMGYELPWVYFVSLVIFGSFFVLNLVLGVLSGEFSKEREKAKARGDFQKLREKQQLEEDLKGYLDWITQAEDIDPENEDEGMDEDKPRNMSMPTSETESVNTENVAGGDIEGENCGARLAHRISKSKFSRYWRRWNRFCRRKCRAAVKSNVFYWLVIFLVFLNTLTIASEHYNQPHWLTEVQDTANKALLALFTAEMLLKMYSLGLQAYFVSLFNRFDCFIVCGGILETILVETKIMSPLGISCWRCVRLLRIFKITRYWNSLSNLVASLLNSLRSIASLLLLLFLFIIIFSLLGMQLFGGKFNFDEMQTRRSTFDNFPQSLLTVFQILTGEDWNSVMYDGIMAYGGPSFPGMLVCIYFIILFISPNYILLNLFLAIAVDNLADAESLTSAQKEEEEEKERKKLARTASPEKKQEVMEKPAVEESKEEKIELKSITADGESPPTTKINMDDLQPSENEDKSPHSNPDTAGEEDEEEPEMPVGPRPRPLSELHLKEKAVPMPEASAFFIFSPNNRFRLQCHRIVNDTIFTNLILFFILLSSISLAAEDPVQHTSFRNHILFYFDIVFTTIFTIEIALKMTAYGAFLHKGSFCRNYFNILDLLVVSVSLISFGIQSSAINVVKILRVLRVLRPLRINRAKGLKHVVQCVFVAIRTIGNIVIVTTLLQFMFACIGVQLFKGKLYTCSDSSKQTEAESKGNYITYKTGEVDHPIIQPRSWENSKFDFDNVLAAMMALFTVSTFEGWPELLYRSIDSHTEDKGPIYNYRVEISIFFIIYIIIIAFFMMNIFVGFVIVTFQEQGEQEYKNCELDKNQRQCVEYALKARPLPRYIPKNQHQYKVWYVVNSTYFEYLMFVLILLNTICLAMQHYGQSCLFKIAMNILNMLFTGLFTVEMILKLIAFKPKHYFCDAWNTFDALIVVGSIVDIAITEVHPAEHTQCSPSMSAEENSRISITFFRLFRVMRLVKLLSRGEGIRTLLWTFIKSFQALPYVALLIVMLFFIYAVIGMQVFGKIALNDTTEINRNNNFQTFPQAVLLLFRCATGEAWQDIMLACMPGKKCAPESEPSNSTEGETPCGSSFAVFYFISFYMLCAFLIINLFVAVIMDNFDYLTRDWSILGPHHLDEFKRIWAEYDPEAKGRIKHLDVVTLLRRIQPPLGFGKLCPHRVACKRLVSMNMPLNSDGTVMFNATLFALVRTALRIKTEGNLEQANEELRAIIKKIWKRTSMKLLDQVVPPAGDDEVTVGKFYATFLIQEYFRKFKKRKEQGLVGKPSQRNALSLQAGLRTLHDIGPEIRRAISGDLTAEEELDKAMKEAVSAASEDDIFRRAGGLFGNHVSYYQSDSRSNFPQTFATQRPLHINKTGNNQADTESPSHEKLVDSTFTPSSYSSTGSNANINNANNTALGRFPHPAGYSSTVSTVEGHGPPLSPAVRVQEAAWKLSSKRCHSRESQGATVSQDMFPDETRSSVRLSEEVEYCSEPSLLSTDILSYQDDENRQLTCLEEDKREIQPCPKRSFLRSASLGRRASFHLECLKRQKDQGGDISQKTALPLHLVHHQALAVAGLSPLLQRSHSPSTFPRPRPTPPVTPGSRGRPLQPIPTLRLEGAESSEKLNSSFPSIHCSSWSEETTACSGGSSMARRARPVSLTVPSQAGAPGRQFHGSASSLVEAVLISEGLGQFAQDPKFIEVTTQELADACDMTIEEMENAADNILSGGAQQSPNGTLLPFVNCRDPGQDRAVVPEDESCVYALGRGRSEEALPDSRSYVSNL
T2 sequence (P54290 25-944 partner limits assumed, other chains not shown): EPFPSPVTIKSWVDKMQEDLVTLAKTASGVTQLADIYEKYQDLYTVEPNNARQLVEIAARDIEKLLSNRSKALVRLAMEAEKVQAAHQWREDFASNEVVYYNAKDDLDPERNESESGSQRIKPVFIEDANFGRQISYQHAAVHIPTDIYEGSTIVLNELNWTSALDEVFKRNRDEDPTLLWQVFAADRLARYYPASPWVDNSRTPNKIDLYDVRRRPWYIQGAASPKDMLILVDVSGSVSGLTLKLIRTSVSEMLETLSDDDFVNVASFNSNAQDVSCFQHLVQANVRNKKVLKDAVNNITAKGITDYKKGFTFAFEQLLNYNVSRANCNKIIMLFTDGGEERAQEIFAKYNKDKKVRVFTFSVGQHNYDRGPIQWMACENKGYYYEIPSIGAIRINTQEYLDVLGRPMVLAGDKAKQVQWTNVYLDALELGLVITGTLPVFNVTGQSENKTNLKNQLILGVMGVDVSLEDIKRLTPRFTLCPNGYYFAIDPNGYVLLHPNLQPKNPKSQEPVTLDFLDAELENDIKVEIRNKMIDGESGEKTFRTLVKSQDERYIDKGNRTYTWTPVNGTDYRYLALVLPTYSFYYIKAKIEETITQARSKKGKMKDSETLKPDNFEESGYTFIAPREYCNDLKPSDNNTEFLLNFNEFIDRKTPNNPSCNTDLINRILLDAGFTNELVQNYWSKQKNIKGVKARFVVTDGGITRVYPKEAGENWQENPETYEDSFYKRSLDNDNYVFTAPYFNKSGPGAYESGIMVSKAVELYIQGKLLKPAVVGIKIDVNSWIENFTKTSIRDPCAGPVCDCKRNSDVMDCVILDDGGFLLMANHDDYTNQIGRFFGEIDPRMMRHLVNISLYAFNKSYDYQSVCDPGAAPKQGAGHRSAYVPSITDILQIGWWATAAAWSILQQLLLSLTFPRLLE
T2 sequence (P54290 945-1091 partner limits assumed, other chains not shown): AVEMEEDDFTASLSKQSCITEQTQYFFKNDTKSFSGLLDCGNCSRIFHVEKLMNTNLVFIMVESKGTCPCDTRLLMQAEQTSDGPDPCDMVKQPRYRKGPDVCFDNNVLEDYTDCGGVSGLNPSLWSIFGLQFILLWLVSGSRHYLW
Method: The protocols for these experiments are given below.
Determination of the Activity of al Antagonists at Calcium Channels
Briefly, the tissue was minced and homogenized in 50 mM Tris-HCl (pH 7.4) containing 0.1 mM phenylmethylsulfonyl fluoride. The homogenates were centrifuged at 1000 g for 15 minutes, the resulting supernatant was centrifuged at 45,000 g for 15 minutes. The 45,000 g pellet was suspended in buffer and centrifuged a second time. Aliquots of membrane protein were incubated for 30 minutes at 37° C. in the presence of [3H]nitrendipine (1 nM), and nonspecific binding was determined in the presence of 10 μM nifedipine. The bound radioligand was separated by filtration through GF/B filters using a cell harvester.

[2] = target: T3, α1B Human Adrenergic Receptor (Homo sapiens, UniProt P35368); test: Radioligand binding, [3H]prazosin, cloned human α1B adrenergic receptor
T3 construct: The entire coding region of α1B (1563 bp); expressed in transfected cells
T3 sequence (P35368 1-520): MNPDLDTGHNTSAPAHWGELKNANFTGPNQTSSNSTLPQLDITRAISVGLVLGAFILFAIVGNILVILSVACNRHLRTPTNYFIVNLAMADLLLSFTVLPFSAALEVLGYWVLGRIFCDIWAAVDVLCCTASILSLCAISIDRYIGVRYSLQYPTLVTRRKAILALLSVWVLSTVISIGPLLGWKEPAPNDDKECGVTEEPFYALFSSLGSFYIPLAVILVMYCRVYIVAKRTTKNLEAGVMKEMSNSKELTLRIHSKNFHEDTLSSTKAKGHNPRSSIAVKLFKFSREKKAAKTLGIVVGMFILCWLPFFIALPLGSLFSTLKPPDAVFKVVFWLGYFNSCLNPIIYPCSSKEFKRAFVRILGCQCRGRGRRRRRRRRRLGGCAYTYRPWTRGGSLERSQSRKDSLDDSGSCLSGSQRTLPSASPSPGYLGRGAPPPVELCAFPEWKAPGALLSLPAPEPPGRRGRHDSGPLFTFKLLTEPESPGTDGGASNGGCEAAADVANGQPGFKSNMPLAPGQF
How it was run: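 Membranes from stably transfected LM(tk−) cells, resuspended in 50 mM Tris-HCl, 1 mM MgCl2, 0.1% ascorbic acid, pH 7.5, were incubated with 0.5 nM [3H]prazosin for 20 min at 37° C. Nonspecific binding defined with 10 μM phentolamine; bound ligand separated by GF/B filtration.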

[3] = target: T4, α1A Human Adrenergic Receptor (Homo sapiens, UniProt P25100); test: Radioligand binding, [3H]prazosin, cloned human α1A adrenergic receptor
T4 construct: The entire coding region of α1A (1719 bp); expressed in transfected cells
T4 sequence (P25100 1-572): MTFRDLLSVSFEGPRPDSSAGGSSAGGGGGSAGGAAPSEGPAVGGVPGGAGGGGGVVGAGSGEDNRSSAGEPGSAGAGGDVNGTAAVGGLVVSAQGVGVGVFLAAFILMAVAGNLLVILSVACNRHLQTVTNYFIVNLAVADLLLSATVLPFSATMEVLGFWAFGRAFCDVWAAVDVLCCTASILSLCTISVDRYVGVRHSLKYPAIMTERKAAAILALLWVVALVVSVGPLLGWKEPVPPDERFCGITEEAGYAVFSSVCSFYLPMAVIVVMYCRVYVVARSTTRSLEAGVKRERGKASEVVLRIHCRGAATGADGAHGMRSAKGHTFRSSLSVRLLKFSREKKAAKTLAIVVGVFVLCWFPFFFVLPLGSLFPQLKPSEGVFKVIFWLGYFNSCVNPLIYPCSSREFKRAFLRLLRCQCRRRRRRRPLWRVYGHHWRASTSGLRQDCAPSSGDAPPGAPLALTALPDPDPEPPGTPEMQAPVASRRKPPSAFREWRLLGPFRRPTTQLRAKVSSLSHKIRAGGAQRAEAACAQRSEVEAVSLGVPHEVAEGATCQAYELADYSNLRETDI
How it was run: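 Membranes from LM(tk−) cells transfected with human α1A were incubated with 0.5 nM [3H]prazosin in 50 mM Tris-HCl, 1 mM MgCl2, 0.1% ascorbic acid, pH 7.5, for 20 min at 37° C. Nonspecific binding was defined with 10 μM phentolamine. Bound ligand was separated by GF/B filtration.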

[4] = cloned human receptor, LM(tk-) cell membranes, mean, read-out: PKi alpha-1 1c (converted)
[5] = rat cardiac muscle membranes, mean, read-out: PKi Ca (converted)
[6] = cloned human receptor, LM(tk-) cell membranes, mean, read-out: PKi alpha-1 1b (converted)
[7] = [3H]prazosin, cloned human receptor, LM(tk-) cell membranes, mean, read-out: PKi alpha-1 1a (converted)
[8] = pKi alpha-1 1c, cloned human α1C receptor, LM(tk−) cell membranes
[9] = rat cardiac muscle membrane fragments, L-type calcium channel, read-out: pKi Ca (converted)
[10] = pKi alpha-1 1b, cloned human α1B receptor, LM(tk−) cell membranes
[11] = pKi alpha-1 1a, [3H]prazosin, cloned human α1A receptor, LM(tk−) cell membranes
[12] = PKi alpha-1 1c, cloned human receptor, LM(tk-) cell membranes, mean
[13] = PKi alpha-1 1b, cloned human receptor, LM(tk-) cell membranes, mean
[14] = PKi alpha-1 1a, [3H]prazosin, cloned human receptor, LM(tk-) cell membranes, mean

| SMILES | melting point | Ki [1, 4] | Ki (L-type calcium channel; [5]) | Ki [2, 6] | Ki [3, 7] | other results |
| --- | --- | --- | --- | --- | --- | --- |
| COC(=O)C1=C(C)NC(C)=C(C(=O)OCCCN(C)C)C1c1ccc([N+](=O)[O-])cc1.Cl (centres unmarked) [Example 44, 1,4-Dihydro-5-methoxycarbonyl-2,6-dimethyl-3-{3-[(N,N-dimethyl)amino]propoxy}carbonyl-4-(4-nitrophenyl) pyridine hydrochloride] | 120 to 121 °C | – | – | – | – | Ki ([1]; cloned human receptor in LM(tk-) cell membranes, SEM and n in lines below, read-out: pKi alpha-1 1c (converted)): 1700 nM; Ki (L-type calcium channel; rat cardiac muscle membranes, SEM and n in lines below, read-out: pKi Ca (converted)): 16600 nM; Ki ([2]; cloned human receptor in LM(tk-) cell membranes, SEM and n in lines below, read-out: pKi alpha-1 1b (converted)): 8320 nM; Ki ([3]; [3H]prazosin, cloned human receptor in LM(tk-) cell membranes, SEM and n in lines below, read-out: pKi alpha-1 1a (converted)): 5890 nM |
| CCNC(=O)C1=C(CC)NC(COCCN=[N+]=[N-])=C(C(=O)NCCCN2CCC(C(=O)OC)(c3ccccc3)CC2)C1c1ccc([N+](=O)[O-])cc1 (centres unmarked) [Example 230, 2-((2-Azidoethyl)oxy)methyl-6-ethyl-5-N-ethylcarboxamido-1,4-dihydro-3-(N-(3-(4-methoxycarbonyl-4-phenylpiperidin-1-yl)propyl))carboxamido-4-(4-nitro)phenylpyridine] | 70 °C (dec.) | 8.71 nM | 9120 nM | 692 nM | 1780 nM | – |
| CCNC(=O)C1=C(CC)NC(CC)=C(C(=O)NCCCN2CCC(c3ccccc3)(c3ccccc3)CC2)C1c1ccc([N+](=O)[O-])cc1 (centres unmarked) [Example 129, 2,6-Diethyl-5-(N-ethyl)carboxamido-1,4-dihydro-4-(4-nitrophenyl)-3-{N-[3-(4,4-diphenylpiperidin-1-yl)propyl]}carboxamidopyridine] | 101 to 104 °C | – | – | – | – | pKi [1, 8]: 8.43; Ki (L-type calcium channel; [9]): 100000 nM; pKi [2, 10]: 6.29; pKi [3, 11]: 6.17 |
| CCC1=C(C(=O)OCCC#N)C(c2ccc([N+](=O)[O-])cc2)C(C(=O)NCCCN2CCC(C#N)(c3ccccc3)CC2)=C(COC)N1 (centres unmarked) [Example 220, 5-(2-Cyanoethoxy)carbonyl-3-(N-(3-(4-cyano-4-phenylpiperidin-1-yl)propyl))carboxamido-6-ethyl-1,4-dihydro-2-methyloxymethyl-4-(4-nitro)phenylpyridine] | 58 to 68 °C | – | 437000 nM | – | – | pKi [1, 12]: 8.01; pKi [2, 13]: 6.28; pKi [3, 14]: 5.67 |
| CCC1=C(C(=O)O)C(c2ccc([N+](=O)[O-])cc2)C(C(=O)NCCCN2CCC(C#N)(c3ccccc3)CC2)=C(COC)N1 (centres unmarked) [Example 222, 3-(N-(3-(4-Cyano-4-phenylpiperidin-1-yl)propyl))carboxamido-6-ethyl-1,4-dihydro-2-methyloxymethyl-4-(4-nitro) phenylpyridine-5-carboxylic Acid] | 115 °C (dec.) | – | 282000 nM | – | – | pKi [1, 12]: 7.38; pKi [2, 13]: 5.17; pKi [3, 14]: 4.85 |
| CCC1=C(C(=O)NC)C(c2ccc([N+](=O)[O-])cc2)C(C(=O)NCCCN2CCC(C(=O)OC)(c3ccccc3)CC2)=C(COCCN=[N+]=[N-])N1 (centres unmarked) [Example 228, 2-((2-Azidoethyl)oxy)methyl-6-ethyl-1,4-dihydro-3-(N-(3-(4-methoxycarbonyl-4-phenylpiperidin-1-yl)propyl))carbo xamido-5-N-methylcarboxamido-4-(4-nitro)phenylpyridine] | 73 to 83 °C | 16.6 nM | 33900 nM | 1480 nM | 3470 nM | – |
| CCC1=C(C(=O)OCCC#N)C(c2ccc([N+](=O)[O-])cc2)C(C(=O)NCCCN2CCC(C(=O)OC)(c3ccccc3)CC2)=C(COCCN=[N+]=[N-])N1 (centres unmarked) [Example 226, 2-((2-Azidoethyl)oxy) methyl-5-(2-cyanoethoxy) carbonyl-6-ethyl-1,4-dihydro-3-(N-(3-(4-methoxycarbonyl-4-phenylpiperidin-1-yl)propyl))carboxamido-4-(4-nitro)phenylpyridine] | 54 to 60 °C | 11 nM | 8710 nM | 97.7 nM | 224 nM | – |
| CCC1=C(C(N)=O)C(c2ccc([N+](=O)[O-])cc2)C(C(=O)NCCCN2CCC(C(=O)OC)(c3ccccc3)CC2)=C(COCCN=[N+]=[N-])N1 (centres unmarked) [Example 231, 2-((2-Azidoethyl)oxy)methyl-5-carboxamido-6-ethyl-1,4-dihydro-3-(N-(3-(4-methoxycarbonyl-4-phenylpiperidin-1-yl)propyl))carboxamido-4-(4-nitro)phenylpyridine] | 70 to 75 °C | 4.37 nM | 389000 nM | 501 nM | 1230 nM | – |
| CCNC(=O)C1=C(C)NC(C)=C(C(=O)NCCCN2CCC(c3ccccc3)(c3ccccc3)CC2)C1c1ccc([N+](=O)[O-])cc1 (centres unmarked) [Example 131, 5-(N-Ethyl)carboxamido-1,4-dihydro-2,6-dimethyl-4-(4-nitrophenyl)-3-{N-[3-(4,4-diphenylpiperidin-1-yl)propyl]}carboxamidopyridine] | 104 to 108 °C | – | – | – | – | pKi [1, 8]: 8.34; Ki (L-type calcium channel; [9]): 100000 nM; pKi [2, 10]: 6.07; pKi [3, 11]: 5.83 |
| CCCC1=C(C(=O)NCC)C(c2ccc([N+](=O)[O-])cc2)C(C(=O)NCCCN2CCC(c3ccccc3)(c3ccccc3)CC2)=C(CCC)N1 (centres unmarked) [Example 159, 5-(N-Ethyl)carboxamido-1,4-dihydro-4-(4-nitrophenyl)-3-{N-[3-(4,4-diphenylpiperidin-1-yl)propyl]}carboxamido-2,6-dipropylpyridine] | 123 to 128 °C | – | – | – | – | Ki ([1]; cloned human α1C receptor, LM(tk−) cell membranes, read-out: pKi alpha-1 1c (converted)): 5.01 nM; pKi (L-type calcium channel; pKi Ca): 5.78; Ki ([2]; cloned human α1B receptor, LM(tk−) cell membranes, read-out: pKi alpha-1 1b (converted)): 178 nM; pKi ([3]; pKi alpha-1 1a): 6.41 |
